Assay results reported in US20100035755A1, “METHOD OF CONTROLLING WEEDS IN A TURF GRASS BY USING SULFONYLUREA COMPOUNDS” (Moghu Research Center Ltd., priority 2008, published 2010).

What was measured:
Perennial rye grass = assay: Turf grass selectivity, greenhouse pot test; assay type: in vivo
Description: (§1) Turf mats of Zoysia grass, bentgrass, Kentucky bluegrass, or perennial rye grass known as cool season turfgrass or western grass were purchased and cut into a piece having 10 cm×20 cm size. Then, each piece was transplanted in a rectangular plastic pot (surface area of 300 cm^2) in which sandy loam and mixed top soil (Boo-Nong Top Soil No. 3, for horticultural use) are filled in 1:1 ratio. After the transplantation, the grasses were cut once a week to maintain the blade height at 0.5-1.0 cm and cultivated for one month in a green house of which temperature was kept at 25˜30° C. for daytime and 15˜25° C. for nighttime, respectively. Then, the ‘test chemical’ of the above Examples 1 and 2 or ‘control chemical’ was applied thereto in an amount of 400, 200, 100, 50, 25, 12, 6, 3 g ai/ha. As a “control chemical”, pyrazolsulfuron ethyl wettable agent (manufactured by Dongbu Fine Chemicals; herein after, referred to as ‘control chemical No. 1’) and flazasulfuron (manufactured by Dongbu HiTek; herein after, referred to as ‘control chemical No. 2’), both sulfonylurea herbicides for a turf grass, were used. Application was carried out by using a track sprayer (R&D Sprayer, USA) equipped with Teejet 8002 nozzle (Spraying Systems Co., USA), and the application amount was adjusted to 2,000 L/ha, which is a typical application amount for a golf course in Korea. Application solution was prepared by diluting the “test chemical” or the “control chemical” with tap water. […] The test was repeated three times in a random arrangement and the results are given in average value of each test (see Table 2 below).

Zoysia japonica = assay: Turf grass selectivity, greenhouse pot test; assay type: in vivo; conditions: Zoysia japonica
Description: as §1

Bentgrass = assay: Turf grass selectivity, greenhouse pot test; assay type: in vivo, Agrostris palustris
Description: as §1

Kentucky bluegrass = assay: Turf grass selectivity, greenhouse pot test; assay type: in vivo, Poa pratensis
Description: as §1

Digitaria sanguinalis = assay: Weed spectrum, greenhouse pot test; assay type: in vivo; conditions: two weeks after application
Description: (§2) To a rectangular plastic pot (surface area of 300 cm^2) in which sandy loam and mixed top soil (Boo-Nong Top Soil No. 3, for horticultural use) are filled in 1:1 ratio, eight different kinds of weed seeds including Poa annua and Digitaria sanguinalis as poaceae weed, Cyperus amuricus as cyperaceae weeds and Trifolium repens, Kummerowia striata, fleabane, Veronica officinalis and Portulaca oleracea as broadleaf weeds were sewn (50 to 100 seeds per each weed). These weeds are representative examples of the weeds which typically thrive in a turf grass field.
(§3) The pot was kept in a greenhouse which was maintained at 25˜30° C. for daytime and 15˜25° C. for nighttime, respectively, and irrigation was carried out regularly. Fourteen days after seeding, when the turf grass and the weeds reached approximately at three-leaf stage, the weed seeds were again sewn in separate two pots or “Test chemical” and “Control chemical” were applied in the same manner as the method described above. In this regard, when plants were cultivated for two weeks and then the chemical application was carried out, it is designated as “post-emergence” treatment. On the other than, when the seeding was carried right before the chemical application, it is designated as “pre-emergence” treatment. Preparation of a chemical solution, application method, etc. are the same as above described for evaluation of turf grass selectivity. Two weeks after the chemical application, efficacy of the chemicals for each type of the weeds was evaluated (visual evaluation) based on 0 to 100 scale (i.e., 0 indicates no efficacy and 100 indicates complete weed control).

Veronica officinalis = assay: Weed spectrum, greenhouse pot test; assay type: in vivo; conditions: two weeks after application
Description: as §2, §3

Dandelion = assay: Weed spectrum, greenhouse pot test; assay type: in vivo; conditions: two weeks after application

What does the source list for `CCOC(=O)c1cnn(C)c1S(=O)(=O)NC(=O)Nc1nc(OC)cc(OC)n1` [Control chemical No. 1, Pyrazosulfuron ethyl, reference compound]?
phytotoxicity (visual assessment 0-10) (Perennial rye grass; 3 g ai/ha, 2 weeks): 0; phytotoxicity (visual assessment 0-10) (Perennial rye grass; 3 g ai/ha, 4 weeks): 0; phytotoxicity (visual assessment 0-10) (Perennial rye grass; 6 g ai/ha, 2 weeks): 0; phytotoxicity (visual assessment 0-10) (Perennial rye grass; 6 g ai/ha, 4 weeks): 0; phytotoxicity (visual assessment 0-10) (Perennial rye grass; 12 g ai/ha, 2 weeks): 0; phytotoxicity (visual assessment 0-10) (Perennial rye grass; 12 g ai/ha, 4 weeks): 0; phytotoxicity (visual assessment 0-10) (Perennial rye grass; 25 g ai/ha, 2 weeks): 0; phytotoxicity (visual assessment 0-10) (Perennial rye grass; 25 g ai/ha, 4 weeks): 0; phytotoxicity (visual assessment 0-10) (Perennial rye grass; 50 g ai/ha, 2 weeks): 0; phytotoxicity (visual assessment 0-10) (Perennial rye grass; 50 g ai/ha, 4 weeks): 0; phytotoxicity (visual assessment 0-10) (Perennial rye grass; 100 g ai/ha, 2 weeks): 0; phytotoxicity (visual assessment 0-10) (Perennial rye grass; 100 g ai/ha, 4 weeks): 0; phytotoxicity (visual assessment 0-10) (Perennial rye grass; 200 g ai/ha, 2 weeks): 0; phytotoxicity (visual assessment 0-10) (Perennial rye grass; 200 g ai/ha, 4 weeks): 0; phytotoxicity (visual assessment 0-10) (Perennial rye grass; 400 g ai/ha, 2 weeks): 1; phytotoxicity (visual assessment 0-10) (Perennial rye grass; 400 g ai/ha, 4 weeks): 0; phytotoxicity (visual assessment 0-10) (Zoysia japonica; 3 g ai/ha, 2 weeks): 0; phytotoxicity (visual assessment 0-10) (Zoysia japonica; 3 g ai/ha, 4 weeks): 0; phytotoxicity (visual assessment 0-10) (Zoysia japonica; 6 g ai/ha, 2 weeks): 0; phytotoxicity (visual assessment 0-10) (Zoysia japonica; 6 g ai/ha, 4 weeks): 0; phytotoxicity (visual assessment 0-10) (Zoysia japonica; 12 g ai/ha, 2 weeks): 0; phytotoxicity (visual assessment 0-10) (Zoysia japonica; 12 g ai/ha, 4 weeks): 0; phytotoxicity (visual assessment 0-10) (Zoysia japonica; 25 g ai/ha, 2 weeks): 0; phytotoxicity (visual assessment 0-10) (Zoysia japonica; 25 g ai/ha, 4 weeks): 0; phytotoxicity (visual assessment 0-10) (Zoysia japonica; 50 g ai/ha, 2 weeks): 0; phytotoxicity (visual assessment 0-10) (Zoysia japonica; 50 g ai/ha, 4 weeks): 0; phytotoxicity (visual assessment 0-10) (Zoysia japonica; 100 g ai/ha, 2 weeks): 0; phytotoxicity (visual assessment 0-10) (Zoysia japonica; 100 g ai/ha, 4 weeks): 0; phytotoxicity (visual assessment 0-10) (Zoysia japonica; 200 g ai/ha, 2 weeks): 0; phytotoxicity (visual assessment 0-10) (Zoysia japonica; 200 g ai/ha, 4 weeks): 0; phytotoxicity (visual assessment 0-10) (Zoysia japonica; 400 g ai/ha, 2 weeks): 0; phytotoxicity (visual assessment 0-10) (Zoysia japonica; 400 g ai/ha, 4 weeks): 0; phytotoxicity (visual assessment 0-10) (Bentgrass; 3 g ai/ha, 2 weeks): 0; phytotoxicity (visual assessment 0-10) (Bentgrass; 3 g ai/ha, 4 weeks): 0; phytotoxicity (visual assessment 0-10) (Bentgrass; 6 g ai/ha, 2 weeks): 0; phytotoxicity (visual assessment 0-10) (Bentgrass; 6 g ai/ha, 4 weeks): 0; phytotoxicity (visual assessment 0-10) (Bentgrass; 12 g ai/ha, 2 weeks): 0; phytotoxicity (visual assessment 0-10) (Bentgrass; 12 g ai/ha, 4 weeks): 0; phytotoxicity (visual assessment 0-10) (Bentgrass; 25 g ai/ha, 2 weeks): 0; phytotoxicity (visual assessment 0-10) (Bentgrass; 25 g ai/ha, 4 weeks): 0; phytotoxicity (visual assessment 0-10) (Bentgrass; 50 g ai/ha, 2 weeks): 0; phytotoxicity (visual assessment 0-10) (Bentgrass; 50 g ai/ha, 4 weeks): 0; phytotoxicity (visual assessment 0-10) (Bentgrass; 100 g ai/ha, 2 weeks): 1; phytotoxicity (visual assessment 0-10) (Bentgrass; 100 g ai/ha, 4 weeks): 0; phytotoxicity (visual assessment 0-10) (Bentgrass; 200 g ai/ha, 2 weeks): 2; phytotoxicity (visual assessment 0-10) (Bentgrass; 200 g ai/ha, 4 weeks): 0; phytotoxicity (visual assessment 0-10) (Bentgrass; 400 g ai/ha, 2 weeks): 3; phytotoxicity (visual assessment 0-10) (Bentgrass; 400 g ai/ha, 4 weeks): 1; phytotoxicity (visual assessment 0-10) (Kentucky bluegrass; 3 g ai/ha, 2 weeks): 0; phytotoxicity (visual assessment 0-10) (Kentucky bluegrass; 3 g ai/ha, 4 weeks): 0; phytotoxicity (visual assessment 0-10) (Kentucky bluegrass; 6 g ai/ha, 2 weeks): 0; phytotoxicity (visual assessment 0-10) (Kentucky bluegrass; 6 g ai/ha, 4 weeks): 0; phytotoxicity (visual assessment 0-10) (Kentucky bluegrass; 12 g ai/ha, 2 weeks): 0; phytotoxicity (visual assessment 0-10) (Kentucky bluegrass; 12 g ai/ha, 4 weeks): 0; phytotoxicity (visual assessment 0-10) (Kentucky bluegrass; 25 g ai/ha, 2 weeks): 0; phytotoxicity (visual assessment 0-10) (Kentucky bluegrass; 25 g ai/ha, 4 weeks): 0; phytotoxicity (visual assessment 0-10) (Kentucky bluegrass; 50 g ai/ha, 2 weeks): 0; phytotoxicity (visual assessment 0-10) (Kentucky bluegrass; 50 g ai/ha, 4 weeks): 0; phytotoxicity (visual assessment 0-10) (Kentucky bluegrass; 100 g ai/ha, 2 weeks): 0; phytotoxicity (visual assessment 0-10) (Kentucky bluegrass; 100 g ai/ha, 4 weeks): 0; phytotoxicity (visual assessment 0-10) (Kentucky bluegrass; 200 g ai/ha, 2 weeks): 1; phytotoxicity (visual assessment 0-10) (Kentucky bluegrass; 200 g ai/ha, 4 weeks): 0; phytotoxicity (visual assessment 0-10) (Kentucky bluegrass; 400 g ai/ha, 2 weeks): 2; phytotoxicity (visual assessment 0-10) (Kentucky bluegrass; 400 g ai/ha, 4 weeks): 1; efficacy (0-100 scale) (Digitaria sanguinalis; Post-emergence, 12 g ai/ha): 0; efficacy (0-100 scale) (Digitaria sanguinalis; Post-emergence, 25 g ai/ha): 0; efficacy (0-100 scale) (Digitaria sanguinalis; Post-emergence, 50 g ai/ha): 0; efficacy (0-100 scale) (Digitaria sanguinalis; Post-emergence, 100 g ai/ha): 10; efficacy (0-100 scale) (Digitaria sanguinalis; Pre-emergence, 12 g ai/ha): 0; efficacy (0-100 scale) (Digitaria sanguinalis; Pre-emergence, 25 g ai/ha): 10; efficacy (0-100 scale) (Digitaria sanguinalis; Pre-emergence, 50 g ai/ha): 30; efficacy (0-100 scale) (Digitaria sanguinalis; Pre-emergence, 100 g ai/ha): 50; efficacy (0-100 scale) (Veronica officinalis; Post-emergence, 12 g ai/ha): 10; efficacy (0-100 scale) (Veronica officinalis; Post-emergence, 25 g ai/ha): 20; efficacy (0-100 scale) (Veronica officinalis; Post-emergence, 50 g ai/ha): 30; efficacy (0-100 scale) (Veronica officinalis; Post-emergence, 100 g ai/ha): 30; efficacy (0-100 scale) (Veronica officinalis; Pre-emergence, 12 g ai/ha): 0; efficacy (0-100 scale) (Veronica officinalis; Pre-emergence, 25 g ai/ha): 20; efficacy (0-100 scale) (Veronica officinalis; Pre-emergence, 50 g ai/ha): 30; efficacy (0-100 scale) (Veronica officinalis; Pre-emergence, 100 g ai/ha): 40; efficacy (0-100 scale) (Dandelion; Post-emergence, 12 g ai/ha): 80; efficacy (0-100 scale) (Dandelion; Post-emergence, 25 g ai/ha): 90; efficacy (0-100 scale) (Dandelion; Post-emergence, 50 g ai/ha): 100; efficacy (0-100 scale) (Dandelion; Post-emergence, 100 g ai/ha): 100; efficacy (0-100 scale) (Dandelion; Pre-emergence, 12 g ai/ha): 70; efficacy (0-100 scale) (Dandelion; Pre-emergence, 25 g ai/ha): 80; efficacy (0-100 scale) (Dandelion; Pre-emergence, 50 g ai/ha): 90; efficacy (0-100 scale) (Dandelion; Pre-emergence, 100 g ai/ha): 100
